Measurements: PubChem BioAssay AID789 (SRMLSC, 2007)
Active and inactive are the calls of the source. No rule for the calls is given here.

Key:
[1] = growth inhibition of apl2Δ yeast, dose response, selectivity assay for post-Golgi transport modulator project, S. cerevisiae, secondary screen, background strain comparison (AID 789); conditions: S. cerevisiae background (wild-type parent) strain growth inhibition
[2] = system: S. cerevisiae apl2Δ mutant growth inhibition; assay: as above

Compound | IC50 [1] [µM] | IC50 [2]
Cc1ccc(C2(C(F)(F)F)N=C3Sc4cc(C)cc(C)c4N3C(=O)N2)cc1 (centres undefined) | 1.08 | 1.73 µM (inactive)
COC(=O)c1ccc(NC(=O)c2cn(-c3ccccc3)nc2-c2ccncc2)cc1 | > 10 | > 10 µM (inactive)
Cc1cccc(N2CCN(CC(=O)Nc3nccs3)CC2)c1C | > 10 | > 10 µM (inactive)
Cc1ccc(S(=O)(=O)NC(CC(C)C)C(=O)Oc2ccc3c4c(c(=O)oc3c2)CCC4)cc1 (centres undefined) | > 10 | > 10 µM (inactive)
O=C(C1CCN(S(=O)(=O)c2cccs2)CC1)N1CCCCCC1 | > 10 | > 10 µM (inactive)
CC(C)Oc1ccc(/C(O)=C2/C(=O)C(=O)N(CCN(C)C)C2c2ccco2)cc1 (centres undefined) | > 10 | > 10 µM (inactive)
O=C(O)Cn1c(SCCOc2ccccc2F)nc2ccccc21 | > 10 | > 10 µM (inactive)
Cc1nn(-c2ccccn2)c(C)c1Oc1ccccc1O | > 10 | > 10 µM (inactive)
CCN(CC)c1ccc(CN2CC=C(c3ccc(F)cc3)CC2)cc1 | 25.8 | 17.3 µM
CCn1c(SCC(=O)N2CCCc3ccccc32)nnc1-c1ccco1 | > 10 | > 10 µM (inactive)
O=C1OCC(CO)(CO)N=C1NNc1ccc(Cl)c(Cl)c1 | 3.35 | 4.53 µM (inactive)
Cc1ccc(C)c(NS(=O)(=O)c2cc(C(=O)N3CCc4ccccc4C3)ccc2Cl)c1 | 6.88 | 5.74 µM
Cc1nn(Cc2cccc(C(=O)NC(C)c3ccc(C(C)(C)C)cc3)c2)c(C)c1[N+](=O)[O-] (centres undefined) | > 10 | > 10 µM (inactive)
Cc1ccc(C(=O)c2c(NC(=O)c3ccncc3)sc3c2CCCC3)cc1 | > 10 | > 10 µM (inactive)
CCOc1cc(/C=C\[N+](=O)[O-])ccc1OCC(=O)Nc1ccccc1C | > 10 | > 10 µM (inactive)
C=C(C)C1CC=C(CN2CC(C)OC(C)C2)CC1 (centres undefined) | > 10 | > 10 µM (inactive)

Compound | IC50 [1] [µM] | IC50 [2]
Cc1ccc2cc(CN(CCO)Cc3nnnn3Cc3ccc(F)cc3)c(=O)[nH]c2c1 | > 10 | > 10 µM (inactive)
CCC(C)(C)n1nnnc1C(c1cc2cc3c(cc2[nH]c1=O)OCO3)N1CCN(C)CC1 (centres undefined) | > 10 | > 10 µM (inactive)
CC(C)Cc1[nH]c(=O)c(C#N)c2c1CCC2 | > 10 | > 10 µM (inactive)
COCCCn1c2nc3ccccc3nc2c2c(=O)n(-c3ccccc3OC)cnc21 | > 10 | > 10 µM (inactive)
Cc1ccc2nc(C)cc(OCC(=O)O)c2c1 | > 10 | > 10 µM (inactive)
Clc1ccc(-c2n[nH]c3c2CCC3)cc1Cl | 1.81 | 2.74 µM (inactive)
O=C(COc1ccc(Cl)cc1Cl)N1CCN(C/C=C/c2ccccc2)CC1 | 7.14 | 4.89 µM
Cc1cc(O)c(/C=N/Nc2ccc(Cl)cc2)c(=O)o1 | 4.69 | 9.39 µM (inactive)
CCN(CC)c1ccc(-c2nc3cnccc3n2C)cc1 | > 10 | > 10 µM (inactive)
CC1=CC(C)(C)Nc2ccc(OC(=O)CN3C(=O)c4cccc5cccc(c45)C3=O)cc21 | > 10 | > 10 µM (inactive)
CN1C(=O)/C(=C/c2cccn2-c2ccc3ccccc3c2)C(=O)NC1=S | 6.58 | 11.3 µM (inactive)
Cc1nc(NC(=O)c2ccccc2)sc1-c1csc(NCc2ccccc2)n1 | > 10 | > 10 µM (inactive)
COc1ccc2nc(NCCCNC(=O)c3cc(OC)c(OC)c(OC)c3)c(C#N)cc2c1 | > 10 | > 10 µM (inactive)
O=S(=O)(c1cnccc1N1CCN(/N=C/c2ccc(Br)cc2)CC1)N1CCCCC1 | > 10 | > 10 µM (inactive)
Cn1c(=O)c2nc(NCc3ccccc3)cnc2n(C)c1=O | > 10 | > 10 µM (inactive)
CC(C)COC(=O)c1ccc2c(c1O)C(=O)c1ccccc1C2=O | > 10 | > 10 µM (inactive)
